Measured values: patent US20230322846A9, “NEUROACTIVE STEROIDS AND THEIR METHODS OF USE” (SAGE THERAPEUTICS, INC., priority 2018, published 2023)

How the values were obtained:
[1] = target: human GABAA receptors composed of the α1β2γ2 subunits (Homo sapiens (Human), UniProt P14867+P18507+P47870); test: α1β2γ2 SyncroPatch automated patch clamp assay; type: cell-based; conditions: for EC50: HEK cells, potentiation of submaximal GABA current, clamped at −120 mV; for α1β2γ2 EMAX: peak current after GABA+compound divided by peak current after GABA alone
human GABAA receptors composed of the α1β2γ2 subunits, sequence (P14867 28-456 limits assumed): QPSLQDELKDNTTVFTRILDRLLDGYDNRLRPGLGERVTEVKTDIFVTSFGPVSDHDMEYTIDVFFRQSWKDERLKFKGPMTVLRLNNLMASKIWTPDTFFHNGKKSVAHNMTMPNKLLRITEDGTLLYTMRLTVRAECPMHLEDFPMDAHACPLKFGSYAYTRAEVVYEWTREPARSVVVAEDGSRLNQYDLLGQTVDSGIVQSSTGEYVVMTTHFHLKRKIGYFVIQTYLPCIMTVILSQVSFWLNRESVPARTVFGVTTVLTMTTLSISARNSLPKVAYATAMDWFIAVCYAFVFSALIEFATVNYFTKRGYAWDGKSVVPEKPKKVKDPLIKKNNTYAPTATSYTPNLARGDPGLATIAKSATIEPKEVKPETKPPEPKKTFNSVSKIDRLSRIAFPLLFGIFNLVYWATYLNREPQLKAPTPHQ
human GABAA receptors composed of the α1β2γ2 subunits, sequence (P47870 25-512 limits assumed): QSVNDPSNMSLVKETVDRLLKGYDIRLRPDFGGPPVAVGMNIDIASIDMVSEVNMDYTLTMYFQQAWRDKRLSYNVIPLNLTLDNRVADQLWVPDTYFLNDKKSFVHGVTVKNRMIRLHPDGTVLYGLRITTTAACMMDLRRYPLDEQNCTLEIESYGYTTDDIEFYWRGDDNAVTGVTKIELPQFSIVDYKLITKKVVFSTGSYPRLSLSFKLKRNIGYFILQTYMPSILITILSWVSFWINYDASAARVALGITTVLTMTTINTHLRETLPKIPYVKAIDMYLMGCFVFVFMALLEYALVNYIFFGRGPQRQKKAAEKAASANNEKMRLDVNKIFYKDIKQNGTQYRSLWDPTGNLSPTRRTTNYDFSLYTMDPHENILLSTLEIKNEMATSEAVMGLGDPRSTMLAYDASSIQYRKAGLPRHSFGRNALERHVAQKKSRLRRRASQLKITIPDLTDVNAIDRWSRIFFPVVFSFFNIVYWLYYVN
human GABAA receptors composed of the α1β2γ2 subunits, sequence (P18507 40-475 limits assumed): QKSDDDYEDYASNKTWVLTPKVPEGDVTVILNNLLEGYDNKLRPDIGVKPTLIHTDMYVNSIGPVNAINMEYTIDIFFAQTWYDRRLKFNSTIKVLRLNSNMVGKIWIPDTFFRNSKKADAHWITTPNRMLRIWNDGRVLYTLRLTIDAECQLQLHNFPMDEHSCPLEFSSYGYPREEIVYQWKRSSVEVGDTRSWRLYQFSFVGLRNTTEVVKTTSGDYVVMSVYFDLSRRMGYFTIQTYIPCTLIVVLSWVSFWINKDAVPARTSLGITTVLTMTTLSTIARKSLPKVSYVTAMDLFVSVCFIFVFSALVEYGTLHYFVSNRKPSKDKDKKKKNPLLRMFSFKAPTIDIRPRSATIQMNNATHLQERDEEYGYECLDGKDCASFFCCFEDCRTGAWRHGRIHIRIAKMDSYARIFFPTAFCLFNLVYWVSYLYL
Procedure: (§1) The SyncroPatch 384PE (Nanion, Germany) automated patch clamp platform was used to obtain recordings from human embryonic kidney cells stably expressing human GABAA receptors composed of the α1β2γ2 and α4β3δ subunits. Cells were bathed in an extracellular solution containing: 140 mM NaCl, 4 mM KCl, 2 mM CaCl2), 1 mM MgCl2, 10 mM HEPES, 5 mM glucose and 0.1% DMSO. Solution was maintained at pH 7.4 with NaOH and 300 mOsm/L. Chips with multi-hole (4×) medium resistance (2-3M) are used for the recombinant cell line experiments. Once harvested, cells are stored in extracellular solution set to 10° C. in the cell hotel with a minimum shaking speed of 200 rpm before addition to the chip at the beginning of each experiment. Whole cell patch clamp recordings were made using an intracellular solution containing: 90 mM KCl, 50 mM KF, 1.5 mM MgCl2, 11.1 mM EGTA and 10 mM HEPES, 2 mM NaATP, maintained at pH 7.2 with KOH. Currents are leak corrected (using P/2 leak correction protocol) and sampled at 5 kHz. Cells were clamped at −120 mV. After establishing a stable baseline, a submaximal concentration of GABA (3-5 μM for cells expressing α1β2γ2 and 10 μM for cells expressing […]) was applied at a rate of 10 μl/second, immediately followed by application of GABA+compound (10 μl/second) at a single concentration of compound per cell. Compounds were tested at six concentrations (0.029, 0.12, 0.47, 1.88, 7.5, and 30 μM) in n=8-12 cells per concentration. Compound effect was determined by dividing peak current amplitude after GABA+compound by peak current amplitude after GABA alone. EC50 and Emax values were determined from average values for each concentration.

[2] = target: human GABAA receptors composed of the α4β3δ subunits (Homo sapiens (Human), UniProt O14764+P28472+P48169); test: α4β3δ SyncroPatch automated patch clamp assay; type: cell-based; conditions: for EC50: HEK cells, potentiation of submaximal GABA current, clamped at −120 mV; for α4β3δ EMAX: peak current after GABA+compound divided by peak current after GABA alone
human GABAA receptors composed of the α4β3δ subunits, sequence (P48169 36-554 limits assumed): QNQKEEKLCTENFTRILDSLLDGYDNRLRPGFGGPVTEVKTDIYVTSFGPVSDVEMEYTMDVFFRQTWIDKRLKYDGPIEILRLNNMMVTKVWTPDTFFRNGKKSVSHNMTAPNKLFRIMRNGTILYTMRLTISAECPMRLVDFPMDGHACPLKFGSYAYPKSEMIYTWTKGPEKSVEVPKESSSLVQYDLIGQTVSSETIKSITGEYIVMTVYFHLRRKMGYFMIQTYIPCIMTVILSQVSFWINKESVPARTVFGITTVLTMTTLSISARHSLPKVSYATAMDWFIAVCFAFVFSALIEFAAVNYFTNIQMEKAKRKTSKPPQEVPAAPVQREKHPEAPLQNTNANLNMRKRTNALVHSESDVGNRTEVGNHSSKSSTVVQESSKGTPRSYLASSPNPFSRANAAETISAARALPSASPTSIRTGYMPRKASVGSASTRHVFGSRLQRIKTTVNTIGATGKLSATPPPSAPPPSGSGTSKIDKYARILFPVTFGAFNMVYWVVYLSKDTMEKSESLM
human GABAA receptors composed of the α4β3δ subunits, sequence (P28472 26-473 limits assumed): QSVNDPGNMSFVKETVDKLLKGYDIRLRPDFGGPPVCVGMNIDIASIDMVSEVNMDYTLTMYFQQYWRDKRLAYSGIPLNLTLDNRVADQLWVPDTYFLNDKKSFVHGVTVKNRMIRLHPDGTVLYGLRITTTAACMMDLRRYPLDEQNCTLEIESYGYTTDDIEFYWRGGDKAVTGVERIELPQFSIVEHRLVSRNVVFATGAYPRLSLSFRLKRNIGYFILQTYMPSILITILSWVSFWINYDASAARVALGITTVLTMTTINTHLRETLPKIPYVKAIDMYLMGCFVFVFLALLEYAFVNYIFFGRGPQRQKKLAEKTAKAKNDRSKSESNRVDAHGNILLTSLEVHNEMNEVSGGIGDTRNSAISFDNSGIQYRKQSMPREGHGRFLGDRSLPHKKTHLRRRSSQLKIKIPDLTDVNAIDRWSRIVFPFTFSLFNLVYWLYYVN
human GABAA receptors composed of the α4β3δ subunits, sequence (O14764 17-452 limits assumed): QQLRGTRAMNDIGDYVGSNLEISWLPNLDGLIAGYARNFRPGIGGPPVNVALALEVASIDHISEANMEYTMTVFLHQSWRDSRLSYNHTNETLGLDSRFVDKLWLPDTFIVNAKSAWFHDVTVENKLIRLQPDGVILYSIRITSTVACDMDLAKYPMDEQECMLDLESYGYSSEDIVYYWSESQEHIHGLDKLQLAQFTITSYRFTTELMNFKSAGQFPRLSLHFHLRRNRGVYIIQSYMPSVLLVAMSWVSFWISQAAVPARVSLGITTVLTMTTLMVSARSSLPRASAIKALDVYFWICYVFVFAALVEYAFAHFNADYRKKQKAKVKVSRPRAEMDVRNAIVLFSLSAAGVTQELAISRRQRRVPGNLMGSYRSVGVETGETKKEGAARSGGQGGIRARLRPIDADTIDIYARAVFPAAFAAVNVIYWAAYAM
Procedure: as §1

[3] = target: [35S]-TBPS binding, rat brain cortical membranes; test: Steroid inhibition of [35S]-TBPS binding; conditions: 3 nM [35S]-TBPS, in the presence of 5 mM GABA
Method in brief: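 Rat cortical P2 membranes incubated 90 min at room temperature with 3 nM [35S]-TBPS, […] and test compound (0.5% DMSO final) in NaCl/Na–K phosphate pH 7.4; nonspecific binding with […]. Filter-bound radioactivity counted; IC50 and Imax from nonlinear fits, mean ± SEM.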

Compound	EC50 [1]	α1β2γ2 EMAX [1]	EC50 [2]	α4β3δ EMAX [2]	IC50 [3]
CCOC[C@@]1(O)CC[C@H]2[C@H](CC[C@@H]3[C@@H]2CC[C@]2(C)[C@@H]([C@H](C)Cn4ccc(C#N)n4)CC[C@@H]32)C1 [Example 287, 1-((S)-2-((3R,5R,8R,9R,10S,13S,14S,17R)-3-(ethoxymethyl)-3-hydroxy-13-methylhexadecahydro-1H-cyclopenta[a]phenanthren-17-yl)propyl)-1H-pyrazole-3-carbonitrile]	200 to 1000 nM	B (B indicates an Emax response 8 to <10)	200 to 1000 nM	A (A indicates an Emax response <30)	< 100 nM
CCC[C@@]1(O)CC[C@H]2[C@H](CC[C@@H]3[C@@H]2CC[C@]2(C)[C@@H]([C@H](C)Cn4nnc(C)n4)CC[C@@H]32)C1 [Example 293, (3R,5R,8R,9R,10S,13S,14S,17R)-13-methyl-17-((S)-1-(5-methyl-2H-tetrazol-2-yl)propan-2-yl)-3-propylhexadecahydro-1H-cyclopenta[a]phenanthren-3-ol]	≥ 1000 nM	A (A indicates an Emax response <8)	200 to 1000 nM	A (A indicates an Emax response <30)	< 100 nM
CCC[C@@]1(O)CC[C@H]2[C@H](CC[C@@H]3[C@@H]2CC[C@]2(C)[C@@H]([C@@H](C)Cn4nnc(C)n4)CC[C@@H]32)C1 [Example 294, (3R,5R,8R,9R,10S,13S,14S,17R)-13-methyl-17-((R)-1-(5-methyl-2H-tetrazol-2-yl)propan-2-yl)-3-propylhexadecahydro-1H-cyclopenta[a]phenanthren-3-ol]	200 to 1000 nM	C (C indicates an Emax response ≥10)	200 to 1000 nM	B (B indicates an Emax response 30 to <45)	< 100 nM
CC(C)C[C@@]1(O)CC[C@H]2[C@H](CC[C@@H]3[C@@H]2CC[C@]2(C)[C@@H]([C@@H](C)Cn4cc(C#N)cn4)CC[C@@H]32)C1 [Example 299, 1-((R)-2-((3S,5R,8R,9R,10S,13S,14S,17R)-3-hydroxy-3-isobutyl-13-methylhexadecahydro-1H-cyclopenta[a]phenanthren-17-yl)propyl)-1H-pyrazole-4-carbonitrile]	≥ 1000 nM	–	< 200 nM	B (B indicates an Emax response 30 to <45)	< 100 nM
C[C@@H](Cn1cc(C#N)cn1)[C@H]1CC[C@H]2[C@@H]3CC[C@@H]4C[C@@](O)(CC5CC5)CC[C@@H]4[C@H]3CC[C@]12C [Example 303, 1-((R)-2-((3S,5R,8R,9R,10S,13S,14S,17R)-3-(cyclopropylmethyl)-3-hydroxy-13-methylhexadecahydro-1H-cyclopenta[a]phenanthren-17-yl)propyl)-1H-pyrazole-4-carbonitrile]	< 200 nM	C (C indicates an Emax response ≥10)	< 200 nM	B (B indicates an Emax response 30 to <45)	< 100 nM
CCCC[C@@]1(O)CC[C@H]2[C@H](CC[C@@H]3[C@@H]2CC[C@]2(C)[C@@H]([C@@H](C)Cn4cc(C#N)cn4)CC[C@@H]32)C1 [Example 311, 1-((R)-2-((3R,5R,8R,9R,10S,13S,14S,17R)-3-butyl-3-hydroxy-13-methylhexadecahydro-1H-cyclopenta[a]phenanthren-17-yl)propyl)-1H-pyrazole-4-carbonitrile]	< 200 nM	C (C indicates an Emax response ≥10)	200 to 1000 nM	B (B indicates an Emax response 30 to <45)	< 100 nM
CCC[C@@]1(O)CC[C@@]2(COC)[C@H](CC[C@H]3[C@@H]4CC[C@H]([C@H](C)Cn5nnc(C)n5)[C@@]4(C)CC[C@@H]32)C1 [Example 320, (3R,5R,8S,9S,10R,13S,14S,17R)-10-(methoxymethyl)-13-methyl-17-((S)-1-(5-methyl-2H-tetrazol-2-yl)propan-2-yl)-3-propylhexadecahydro-1H-cyclopenta[a]phenanthren-3-ol]	200 to 1000 nM	B (B indicates an Emax response 8 to <10)	200 to 1000 nM	C (C indicates an Emax response ≥45)	< 100 nM
CCC[C@@]1(O)CC[C@H]2[C@H](CC[C@@H]3[C@@H]2CC[C@]2(C)[C@@H]([C@H](C)Cn4nnnc4C)CC[C@@H]32)C1 [Example 323, (3R,5R,8R,9R,10S,13S,14S,17R)-13-methyl-17-(1-(5-methyl-1H-tetrazol-1-yl)propan-2-yl)-3-propylhexadecahydro-1H-cyclopenta[a]phenanthren-3-ol]	< 200 nM	C (C indicates an Emax response ≥10)	200 to 1000 nM	B (B indicates an Emax response 30 to <45)	< 100 nM
CCC[C@@]1(O)CC[C@H]2[C@@H](CC[C@@H]3[C@@H]2CC[C@]2(C)[C@@H]([C@@H](C)Cn4nnnc4C)CC[C@@H]32)C1 [Example 332, (3R,5S,8R,9R,10S,13S,14S,17R)-13-methyl-17-((R)-1-(5-methyl-1H-tetrazol-1-yl)propan-2-yl)-3-propylhexadecahydro-1H-cyclopenta[a]phenanthren-3-ol]	< 200 nM	A (A indicates an Emax response <8)	200 to 1000 nM	A (A indicates an Emax response <30)	100 to 1000 nM
C[C@@H](Cn1cc(C#N)cn1)[C@H]1CC[C@H]2[C@@H]3CC[C@@H]4C[C@@](O)(C5CC5)CC[C@@H]4[C@H]3CC[C@]12C [Example 341, 1-((R)-2-((3R,5R,8R,9R,10S,13S,14S,17R)-3-cyclopropyl-3-hydroxy-13-methylhexadecahydro-1H-cyclopenta[a]phenanthren-17-yl)propyl)-1H-pyrazole-4-carbonitrile]	< 200 nM	A (A indicates an Emax response <8)	< 200 nM	A (A indicates an Emax response <30)	< 100 nM
CCOC[C@@]1(O)CC[C@H]2[C@H](CC[C@@H]3[C@@H]2CC[C@]2(C)[C@@H]([C@H](Cn4cc(C#N)cn4)C(F)(F)F)CC[C@@H]32)C1 [Example 357, 1-((R)-2-((3R,5R,8R,9R,10S,13S,14S,17R)-3-(ethoxymethyl)-3-hydroxy-13-methylhexadecahydro-1H-cyclopenta[a]phenanthren-17-yl)-3,3,3-trifluoropropyl)-1H-pyrazole-4-carbonitrile]	200 to 1000 nM	B (B indicates an Emax response 8 to <10)	200 to 1000 nM	B (B indicates an Emax response 30 to <45)	100 to 1000 nM
CCOC[C@@]1(O)CC[C@H]2[C@H](CC[C@@H]3[C@@H]2CC[C@]2(C)[C@@H]([C@H](Cn4nnc(C)n4)C(F)(F)F)CC[C@@H]32)C1 [Example 358, (3R,5R,8R,9R,10S,13S,14S,17R)-3-(ethoxymethyl)-13-methyl-17-((R)-1,1,1-trifluoro-3-(5-methyl-2H-tetrazol-2-yl)propan-2-yl)hexadecahydro-1H-cyclopenta[a]phenanthren-3-ol]	≥ 1000 nM	A (A indicates an Emax response <8)	≥ 1000 nM	B (B indicates an Emax response 30 to <45)	100 to 1000 nM
